{"source": "paper PMC5318895", "about": "“Inhibition of N1-Src kinase by a specific SH3 peptide ligand reveals a role for N1-Src in neurite elongation by L1-CAM” (Scientific Reports, 2017)", "key": {"[1]": {"tested_on": "hippocampal neurons", "experiment": "neurite growth of hippocampal neurons after N1-Src shRNA knockdown", "type": "cell-based, rat", "details": "pSUPER-GFP shRNA, 48 h and 96 h post-transfection, versus empty plasmid or non-targeting shRNA, n = 90 neurons, Kruskal-Wallis", "description": "We next took advantage of the specificity of PDN1 to investigate the role of endogenous N1-Src in neurite outgrowth in cultured neurons. CFP-PDN1 or -PDN1(P5A) was transfected into 1 DIV CGNs and their morphology analysed after […]. During CGN development in vivo and immediately after plating in vitro, the cells grow two processes before polarising to yield a single axon and the second process retracts to become a dendrite and further dendrites are initiated. The axon then extends further before bifurcating. […] To further confirm that N1-Src regulates neurite growth we employed an shRNA expressing plasmid (pSUPER-GFP) to knockdown N1-Src in neurons. […] The successful N1-Src shRNA plasmid was transfected into hippocampal neurons, and the length of the longest neurite in GFP-positive neurons was assessed at 48 h and 96 h post-transfection. […] Thus, perturbing N1-Src activity with PDN1 or knockdown of the protein produces the same neurite phenotype in primary neuronal cultures.\nFigure 5 Knockdown of N1-Src phenocopies the action of PDN1 in cultured neurons. […] (c,d) Cultured hippocampal neurons transfected with pSUPER-GFP (control) or pSUPER-GFP encoding N1-Src specific shRNA were analysed for length of longest neurite at 48 or 96 h. […] Data were normalised to the 48 h control and plotted as mean ± SEM, n = 90 neurons, with 30 cells analysed per condition in 3 independent experiments. […]"}, "[2]": {"tested_on": "N1-Src", "experiment": "isoform specificity of N1-Src shRNA co-expressed with C-, N1- or N2-Src in COS7 cells", "type": "cell-based, rat", "details": "COS7, co-transfected 72 h with C-, N1- or N2-Src-FLAG; anti-FLAG immunoblot"}, "[3]": {"tested_on": "C-Src SH3 domain", "details": "cited from earlier work", "excerpt": "The PDN1 consensus motif, RxPxxTxK, represents a novel SH3 ligand and lacks a canonical PxxP, thus confirming the six amino acid N1-Src splice insert has a dramatic effect on the structure of its SH3 domain. The ligand binding site in the majority of SH3 domains, including C-Src, comprises three pockets, two of which interact with the core xP motifs and one that adds specificity through binding flanking residues. […] Indeed, one of the few ..."}, "[4]": {"target": "T1, N1-Src (Rattus norvegicus, UniProt Q9WUD9)", "experiment": "in vitro kinase assay, N1-Src phosphorylation of GST-Y-PDN substrates", "type": "biochemical", "parameters": "His; made in house; host or cells: E. coli", "details": "PDN1 fused to an ideal Src substrate", "description": "Figure 1 Identification of a novel ligand consensus sequence for the N1-Src SH3 domain. (a) Schematic of the kinase assay used to validate the effect of potential SH3 domain ligands on the phosphorylation of an ideal tyrosine motif (Y in bold) located upstream of a 10 aa linker and 12 aa phage peptide. (b) GST-Y-PDN1–6 substrates at 0.3, 0.9, 2.8 or 8.3 μM were phosphorylated in vitro with 5 nM C- or N1-Src at 30 °C and the phosphorylation detected by anti-phosphotyrosine immunoblot. Immunoblots are representative of three independent experiments. (c) Alignment of the phage display peptides ranked by N1-Src selectivity derived from results in (b). Shaded residues represent the common consensus sequence. […] (e) GST-Y-PDN1 substrates with the indicated point mutations (see insert) at 8.3 μM were phosphorylated by 5 nM N1-Src and the extent of phosphorylation was measured by densitometry of phosphotyrosine immunoreactivity. […]\nThe PDN peptides were tested for specificity for the N1-Src SH3 domain using a kinase assay in which a GST fusion of an ideal Src substrate peptide (Y) and a putative SH3 ligand peptide can distinguish SH3 domain specificity (Fig. 1a). Based on our previous study, we chose a range of substrate concentrations at which an enhancement in phosphorylation by docking to canonical peptide ligands for the C-Src SH3 domain can be detected (8.3 μM and below)[12]. […]"}, "[5]": {"target": "T1, N1-Src", "experiment": "inhibition of N1-Src phosphorylation of GST-Y by free soluble peptide", "type": "biochemical", "parameters": "His; made in house; host or cells: E. coli", "details": "free soluble peptide titrated with 5 nM N1-Src and GST-Y; phosphotyrosine immunoblot densitometry; n = 3", "description": "Previous studies have shown that soluble SH3 ligands can enhance Src family kinase activity in vitro[20][21]. […] This experiment raised the possibility that PDN1 could act as an N1-Src inhibitor in cells. […] We observed that COS7 cells transfected with N1-Src-FLAG underwent a striking change in morphology within 48 h (Fig. 3a). Similar to that previously observed in Xenopus epithelial cells, overexpression of the kinase induced the growth of neurite-like processes (Fig. 3b) and an approximate 35% reduction in area of the cell soma (Fig. 3c). […] Using cell morphology as a readout, we assessed the effect of CFP-PDN1 and PDN1(P5A) on N1-Src activity in cells. […] We also assessed the effect of PDN1 on N2-Src expressing cells because the first five amino acids of its SH3 insert are identical to that in N1-Src[3].\nFigure 2 PDN1 inhibits N1-Src activity in vitro. GST-Y was incubated with 5 nM N1-Src and the indicated concentrations of either PDN1 or PDN1(P5A) and the extent of phosphorylation determined by densitometry of phosphotyrosine immunoreactivity. […]\nPhosphorylation reactions were performed as previously described, prepared in kinase reaction buffer (100 mM Tris, 10 mM MgCl2, pH 7.5) and initiated by the addition of pre-warmed ATP (0.5 mM final concentration) and incubated at 30 °C for the indicated times. […] Due to the non-quantitative measurement of V, Vmax was not determined. […]"}}}
{"substance": "5′-GGAAGGTGGATGTCAGAGA-3′ (expressed or natural sequence; target site or template, no part of the molecule) [N1-Src shRNA]", "values": [{"measurement": "inhibition of neurite growth (length of longest neurite)", "setting": "[1]", "result": "significant time-dependent inhibition of neurite growth"}, {"measurement": "isoform specificity of knockdown", "setting": "[2]", "result": "confirmed isoform specificity"}]}
{"substance": "RSLRPLPPLPPRPPF [phage display ligand selected by the PI3-kinase SH3 domain]", "values": [{"measurement": "binding to the C-Src SH3 domain", "setting": "[3]", "result": "did not bind the C-Src SH3 domain"}]}
{"substance": "WHRMPAYTAKYP [PDN1, 12mer peptide derived from a phage display screen of the N1-Src SH3 domain]", "values": [{"measurement": "enhancement of substrate phosphorylation by N1-Src", "setting": "[4]", "result": "enhanced the specific in vitro phosphorylation of an ideal substrate by N1-Src"}, {"measurement": "inhibition of GST-Y phosphorylation", "setting": "[5]", "result": "inhibited GST-Y phosphorylation in a dose dependent manner"}]}
